# Reference: patent US10973821B2, “Pharmaceutical formulation” (priority 2016, dated 2021)
# How the values were obtained:
# [1] = in vivo PK studies in rats (single dose IV and p.o.); settings: rat, 10 mg/kg
# Method: Various formulations were investigated in in vivo PK studies in rats to determine the optimal oral formulation for dosing to animals and humans.
# The compound of Formula I was administered to rats by IV at a dosage of 10 mg/kg. The vehicle comprised 15% hydroxypropyl beta cyclodextrin (Kelptose HPB parenteral grade), 5% DMSO and water for injection. The formulation was filtered using a ≤0.22 μm polyethersulfone (PES) membrane filter prior to use. The dose volume administered was 5 mL/kg. 0.2 mL blood samples from the sublingal vein under isoflurane anaesthesia were obtained 5 minutes after IV administration and stored in EDTA. Plasma was separated by centrifugation (1500×g, 10 mins, ca. 4° C.) and was frozen at −70° C. prior to analysis. Analysis to calculate plasma concentration of the compound of Formula I was conducted by LC-MS/MS. […] The AUCIV value was subsequently used to calculate the bioavailability of example oral formulations as described above.
# A crystalline sample of the compound of Formula I was formulated in PEG300. The formulation was dosed p.o. (gavage) to rats at 10 mg/kg (dose volume=5 mL/kg). 0.2 mL blood samples from the sublingal vein under isoflurane anaesthesia were obtained 15 minutes after oral administration and stored in EDTA. Samples were then taken 0.5, 1, 2, 4, 8, 12 and 24 hours post-dose.
# [2] = in vivo PK studies in cynomolgus monkeys (single dose IV and p.o.); settings: both sexes, cynomolgus monkey, 10 mg/kg
# Method: Various formulations were investigated in in vivo PK studies in cynomolgus monkeys to determine the optimal oral formulation for dosing to animals and humans.
# The compound of Formula I was administered to male and female cynomolgus monkeys by IV at a dosage of 10 mg/kg. The IV formulation was as described in Example 3. […] The AUCIV value was subsequently used to calculate the bioavailability of example oral formulations as described above.
# Studies were conducted using Formulation 2 as described above. The compound of Formula I was administered p.o. to male and female cynomolgus monkeys at a dose level of 10 mg/kg. (dose volume 5 mL/kg). 2 mL blood samples were obtained 5 minutes via femoral puncture (vein/artery) into commercially available K2EDTA tubes using 23G needles coupled to a suitable syringe. Samples were taken 0.25, 0.5, 1, 2, 4, 8, 12 and 24 hours after administration of the formulation. Blood samples were kept on ice until centrifugation at 1600×g (10 mins, ca. 5° C.) to separate plasma. Analysis to calculate plasma concentration of the compound of Formula I was conducted by LC-MS/MS.
# Studies were conducted using Formulation 5 as described in Example 3. […]
# A. niger = settings: cited from earlier work
# A. fumigatus [3] = settings: cited from earlier work
# A. terreus = settings: cited from earlier work
# A. flavus = settings: cited from earlier work
# A. terreus 49 = settings: cited from earlier work
# A. fumigatus 210 = settings: cited from earlier work
# S. apiospermum 13486 = settings: cited from earlier work
# S. apiospermum 15848 = settings: cited from earlier work
# S. apiospermum 451 = settings: cited from earlier work
# S. apiospermum 4883 = settings: cited from earlier work
# S. apiospermum 7935 = settings: cited from earlier work
# S. apiospermum 8353 = settings: cited from earlier work
# S. prolificans 18389 = settings: cited from earlier work
# S. prolificans 206 = settings: cited from earlier work
# S. prolificans 6322 = settings: cited from earlier work
# S. prolifican 201 = settings: cited from earlier work
# S. prolifican 13486 = settings: cited from earlier work
# S. prolifican 7935 = settings: cited from earlier work
# S. prolifican 15848 = settings: cited from earlier work
# S. prolifican 8353 = settings: cited from earlier work
# S. prolifican 451 = settings: cited from earlier work
# S. prolifican 4883 = settings: cited from earlier work
# S. prolifican 15849 = settings: cited from earlier work
# S. prolifican 1121 = settings: cited from earlier work
# S. apiospermum 1124 = settings: cited from earlier work
# S. dehoogii = settings: cited from earlier work
# S. boydii = settings: cited from earlier work
# S. aurantiacum = settings: cited from earlier work
# invasive aspergillosis = settings: mouse; orally by gavage; not the formulations of the present invention; cited from earlier work
# A. fumigatus [4] = settings: A. fumigatus infected mice; orally by gavage; cited from earlier work
# [5] = tested on: Lomentospora prolificans FMR 3569; settings: mice infected with Lomentospora prolificans FMR 3569; relative to voriconazole; orally by gavage; cited from earlier work
structure (smiles),measurement,setting,value
"Cc1cc(-c2ccccc2)c(C(=O)C(=O)Nc2ccc(N3CCN(c4ncc(F)cn4)CC3)cc2)n1C [compound of Formula I, 2-(1,5-dimethyl-3-phenyl-1H-pyrrol-2-yl)-N-(4-(4-(5-fluoropyrimidin-2-yl)piperazin-1-yl)phenyl)-2-oxoacetamide]",AUC,[1],13500 ng·h/mL
same,AUC,[2],18000 ng·h/mL
same,MIC band (RPMI medium),A. niger,C (0.01 < MIC ≤ 0.02)
same,MIC band (RPMI medium),A. fumigatus [3],C (0.01 < MIC ≤ 0.02)
same,MIC band (RPMI medium),A. terreus,A (MIC ≤ 0.005)
same,MIC band (RPMI medium),A. flavus,B (0.005 < MIC ≤ 0.01)
same,MIC band (RPMI medium),A. terreus 49,A (MIC ≤ 0.005)
same,MIC band (RPMI medium),A. fumigatus 210,C (0.01 < MIC ≤ 0.02)
same,MIC band (RPMI medium),S. apiospermum 13486,D (0.02 < MIC ≤ 0.04)
same,MIC band (RPMI medium),S. apiospermum 15848,D (0.02 < MIC ≤ 0.04)
same,MIC band (RPMI medium),S. apiospermum 451,B (0.005 < MIC ≤ 0.01)
same,MIC band (RPMI medium),S. apiospermum 4883,C (0.01 < MIC ≤ 0.02)
same,MIC band (RPMI medium),S. apiospermum 7935,C (0.01 < MIC ≤ 0.02)
same,MIC band (RPMI medium),S. apiospermum 8353,B (0.005 < MIC ≤ 0.01)
same,MIC band (RPMI medium),S. prolificans 18389,C (0.01 < MIC ≤ 0.02)
same,MIC band (RPMI medium),S. prolificans 206,D (0.02 < MIC ≤ 0.04)
same,MIC band (RPMI medium),S. prolificans 6322,D (0.02 < MIC ≤ 0.04)
same,MIC band (RPMI medium),S. prolifican 201,D (0.02 < MIC ≤ 0.04)
same,MIC band (RPMI medium),S. prolifican 13486,D (0.02 < MIC ≤ 0.04)
same,MIC band (RPMI medium),S. prolifican 7935,C (0.01 < MIC ≤ 0.02)
same,MIC band (RPMI medium),S. prolifican 15848,D (0.02 < MIC ≤ 0.04)
same,MIC band (RPMI medium),S. prolifican 8353,B (0.005 < MIC ≤ 0.01)
same,MIC band (RPMI medium),S. prolifican 451,B (0.005 < MIC ≤ 0.01)
same,MIC band (RPMI medium),S. prolifican 4883,C (0.01 < MIC ≤ 0.02)
same,MIC band (RPMI medium),S. prolifican 15849,E (0.04 < MIC ≤ 0.06)
same,MIC band (RPMI medium),S. prolifican 1121,A (MIC ≤ 0.005)
same,MIC band (RPMI medium),S. apiospermum 1124,A (MIC ≤ 0.005)
same,antifungal activity,S. dehoogii,good antifungal activity
same,antifungal activity,S. boydii,good antifungal activity
same,antifungal activity,S. aurantiacum,good antifungal activity
same,efficacy in murine models of invasive aspergillosis,invasive aspergillosis,excellent efficacy
same,galactomannan indices,A. fumigatus [4],reduce galactomannan indices
same,survival,[5],increase survival
